pIC50: −log10 of the molar value.
Test system: 266295-075-R-J1-PDC spheroid viability
Assay: Anticancer human tumor 266295-075-R-J1-PDC patient-derived head and neck squamous carcinoma cell line growth inhibition [POLQ]
Conditions: spheroids with HUVEC and MSC; for pIC50: curve of first compound; for viability, T/C: stronger effect = lower value
Procedure: Multicellular complex tumor spheroid response to Polymerase (POL) inhibitors (novobiocin, ART-558, RP6685) in combination with a variety of drugs and investigational agents in selected tumor cell lines
The POL inhibitors (novobiocin, ART-558, and RP6685) were evaluated both individually and in combination with standard of care and investigational anticancer small molecules within a complex spheroid model of solid tumors. . Complex spheroids include a stromal component modeled by human endothelial cells (HUVEC) and fibroblasts modeled by human mesenchymal stem cells (MSCs). The concentration ranges selected for each drug and investigational agent were based upon clinically achievable concentrations if the clinical Cmax of the agent was known.
Compounds. The drugs and investigational agents: novobiocin (NSC847541), ART-558 (NSC835418), RP-6685 (NSC848927), peposertib (NSC802822), ceralasertib (NSC780249), elimusertib (NSC800525), camonsertib (NSC841442), AZD-1390 (NSC803789), olaparib (NSC753686), talazoparib (NSC767125), rucaparib (NSC756644), sotorasib (NSC818433), MRTX-1133 (NSC836407), SN-38 (NSC673596), topotecan (NSC609699), epotoside (NSC141540), doxorubicin (NSC123127), gemcitabine (NSC613327), 5-fluorouracil (NSC19893), paclitaxel (NSC125973), vemurafenib (NSC761431), MSA-2 (NSC828583), SN-011 (NSC837082), adavosertib (NSC754352), prexasertib (NSC758257), carboplatin (NSC241240) and oxaliplatin (NSC266046), were obtained from the National Cancer Institute (NCI) Developmental Therapeutics Program Chemical Repository (21). The FDA-approved anticancer drug set is available from the Developmental Therapeutics Program at https://dtp.cancer.gov/organization/dscb/obtaining/. […] The stock solutions were prepared in dimethyl sulfoxide (DMSO, Sigma-Aldrich, St. Louis, MO, cat. D2650), except for the platinum compounds which were prepared in saline (Quality Biological, Gaithersburg, MD, cat. 114-055-101), at 800-fold the tested concentration and stored at -70 degrees C prior to their use. All drugs and investigational agents were tested over a range starting from a high concentration at or near the clinical Cmax and decreasing in half-log increments. If the clinical Cmax for an agent had not been determined, the highest concentration tested was 10 microM, except for SN-38, which was tested at a high concentration of 1 microM.
Cell Culture. All cells were maintained in an incubator at 37 degrees C and 5% CO2 with 95% humidity. The PDC lines were cultured according to standard operating procedures established by the NCI PDMR (https://pdmr.cancer.gov). Table 3 of the manuscript, lists the cell lines along with the number of the three cell types plated to form the mct-spheroids and media for tumor cell growth. After thawing, all PDC lines, except 997537-175-T-J1-PDC and 415267-285-R-J2-PDC, were cultured in Matrigel-coated flasks prepared with a working solution of 1X Ham's F-12 nutrient mix, without supplementation (Thermo Fisher Scientific, cat. 11765054), 100 U/mL penicillin-streptomycin (Thermo Fisher Scientific, cat. 15140122), and 2.5% Matrigel (Corning Inc., Corning, NY, cat. 354248) for the first three passages. The two PDC lines 997537-175-T-J1-PDC and 415267-285-R-J2-PDC were cultured on uncoated flasks. The 857933-349-R-J2-PDC line was cultured in 6C/Colon 1B media containing advanced DMEM/F-12 (Thermo Fisher Scientific, cat. 12634028), 10 mM HEPES (Thermo Fisher Scientific, cat. 15630080), 1X GlutaMAX supplement (Thermo Fisher Scientific, cat. 35050061), 0.1 mg/mL primocin (InvivoGen, San Diego, CA, cat. ant-pm-2), 10% defined fetal bovine serum, heat inactivated (HyClone Laboratories Inc., Logan, UT, cat. SH30070.03HI), 50% L-WRN conditioned media (ATCC, cat. CRL-3276), 1.25 mM N-Acetyl-L-cysteine (Sigma-Aldrich, cat. A9165), 10 mM nicotinamide (Sigma-Aldrich, cat. N0636), 1X B-27 supplement (Thermo Fisher Scientific, cat. 17504044), 1X N-2 supplement (Thermo Fisher Scientific, cat. […]

[1] = second compound 0.0316 µM, first compound 0.0316 µM
[2] = second compound 0.0316 µM, first compound 0.1 µM
[3] = second compound 0.1 µM, first compound 0.0316 µM
[4] = second compound 0.1 µM, first compound 0.1 µM
[5] = second compound 0.316 µM, first compound 0.0316 µM
[6] = second compound 0.316 µM, first compound 0.1 µM
[7] = second compound 1 µM, first compound 0.0316 µM
[8] = second compound 1 µM, first compound 0.1 µM
[9] = second compound 3.16 µM, first compound 0.0316 µM
[10] = second compound 3.16 µM, first compound 0.1 µM
[11] = second compound 10 µM, first compound 0.0316 µM
[12] = second compound 10 µM, first compound 0.1 µM
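Note: spheroids exposed to compounds for seven days before readout.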

CC[C@@]1(O)C(=O)OCc2c1cc1n(c2=O)Cc2cc3c(CN(C)C)c(O)ccc3nc2-1 + Cc1cccc(N(C)C(=O)C2C(O)CCN2c2nc(C)cc(C(F)(F)F)c2C#N)c1
pIC50 (second compound 0.0316 µM): < 7.00 | pIC50 (second compound 0.1 µM): < 7.00 | pIC50 (second compound 0.316 µM): < 7.00 | pIC50 (second compound 1 µM): < 7.00 | pIC50 (second compound 3.16 µM): < 7.00 | pIC50 (second compound 10 µM): < 7.00 | viability, T/C (second compound 0.0316 µM, first compound 0.000316 µM): 75% | viability, T/C (second compound 0.0316 µM, first compound 0.001 µM): 85.8% | viability, T/C (second compound 0.0316 µM, first compound 0.00316 µM): 107% | viability, T/C (second compound 0.0316 µM, first compound 0.01 µM): 83.8% | viability, T/C [1]: 91.3% | viability, T/C [2]: 76.3% | viability, T/C (second compound 0.1 µM, first compound 0.000316 µM): 94.2% | viability, T/C (second compound 0.1 µM, first compound 0.001 µM): 90.1% | viability, T/C (second compound 0.1 µM, first compound 0.00316 µM): 77.6% | viability, T/C (second compound 0.1 µM, first compound 0.01 µM): 81.2% | viability, T/C [3]: 86.6% | viability, T/C [4]: 77.8% | viability, T/C (second compound 0.316 µM, first compound 0.000316 µM): 101% | viability, T/C (second compound 0.316 µM, first compound 0.001 µM): 88% | viability, T/C (second compound 0.316 µM, first compound 0.00316 µM): 88% | viability, T/C (second compound 0.316 µM, first compound 0.01 µM): 86.8% | viability, T/C [5]: 106% | viability, T/C [6]: 93.9% | viability, T/C (second compound 1 µM, first compound 0.000316 µM): 79% | viability, T/C (second compound 1 µM, first compound 0.001 µM): 103% | viability, T/C (second compound 1 µM, first compound 0.00316 µM): 85.2% | viability, T/C (second compound 1 µM, first compound 0.01 µM): 91.2% | viability, T/C [7]: 92.3% | viability, T/C [8]: 87.7% | viability, T/C (second compound 3.16 µM, first compound 0.000316 µM): 78% | viability, T/C (second compound 3.16 µM, first compound 0.001 µM): 94.2% | viability, T/C (second compound 3.16 µM, first compound 0.00316 µM): 92.4% | viability, T/C (second compound 3.16 µM, first compound 0.01 µM): 87.2% | viability, T/C [9]: 91.9% | viability, T/C [10]: 78.2% | viability, T/C (second compound 10 µM, first compound 0.000316 µM): 122% | viability, T/C (second compound 10 µM, first compound 0.001 µM): 93.8% | viability, T/C (second compound 10 µM, first compound 0.00316 µM): 93.3% | viability, T/C (second compound 10 µM, first compound 0.01 µM): 109% | viability, T/C [11]: 115% | viability, T/C [12]: 88.4%

COc1cc(C2c3cc4c(cc3C(OC3OC5COC(C)OC5C(O)C3O)C3COC(=O)C23)OCO4)cc(OC)c1O (centres undefined) + Cc1cccc(N(C)C(=O)C2C(O)CCN2c2nc(C)cc(C(F)(F)F)c2C#N)c1
pIC50 (second compound 0.0316 µM): < 5.00 | pIC50 (second compound 0.1 µM): < 5.00 | pIC50 (second compound 0.316 µM): < 5.00 | pIC50 (second compound 1 µM): < 5.00 | pIC50 (second compound 3.16 µM): < 5.00 | pIC50 (second compound 10 µM): < 5.00 | viability, T/C [1]: 83.3% | viability, T/C [2]: 75.2% | viability, T/C (second compound 0.0316 µM, first compound 0.316 µM): 82.2% | viability, T/C (second compound 0.0316 µM, first compound 1 µM): 75.8% | viability, T/C (second compound 0.0316 µM, first compound 3.16 µM): 75.3% | viability, T/C (second compound 0.0316 µM, first compound 10 µM): 64.9% | viability, T/C [3]: 78.8% | viability, T/C [4]: 82.2% | viability, T/C (second compound 0.1 µM, first compound 0.316 µM): 72.5% | viability, T/C (second compound 0.1 µM, first compound 1 µM): 69.4% | viability, T/C (second compound 0.1 µM, first compound 3.16 µM): 70.7% | viability, T/C (second compound 0.1 µM, first compound 10 µM): 70.2% | viability, T/C [5]: 96.5% | viability, T/C [6]: 73.1% | viability, T/C (second compound 0.316 µM, first compound 0.316 µM): 73.9% | viability, T/C (second compound 0.316 µM, first compound 1 µM): 76.3% | viability, T/C (second compound 0.316 µM, first compound 3.16 µM): 73.1% | viability, T/C (second compound 0.316 µM, first compound 10 µM): 57.9% | viability, T/C [7]: 86.1% | viability, T/C [8]: 95.4% | viability, T/C (second compound 1 µM, first compound 0.316 µM): 82% | viability, T/C (second compound 1 µM, first compound 1 µM): 86.2% | viability, T/C (second compound 1 µM, first compound 3.16 µM): 73.4% | viability, T/C (second compound 1 µM, first compound 10 µM): 68.1% | viability, T/C [9]: 85.8% | viability, T/C [10]: 76.2% | viability, T/C (second compound 3.16 µM, first compound 0.316 µM): 77.5% | viability, T/C (second compound 3.16 µM, first compound 1 µM): 68.5% | viability, T/C (second compound 3.16 µM, first compound 3.16 µM): 68.1% | viability, T/C (second compound 3.16 µM, first compound 10 µM): 62.8% | viability, T/C [11]: 101% | viability, T/C [12]: 72.5% | viability, T/C (second compound 10 µM, first compound 0.316 µM): 69.2% | viability, T/C (second compound 10 µM, first compound 1 µM): 72.2% | viability, T/C (second compound 10 µM, first compound 3.16 µM): 72.5% | viability, T/C (second compound 10 µM, first compound 10 µM): 60%

— PubChem BioAssay AID1963853 (Molecular Pharmacology Branch, DTP, NCI, 2024)
